Patent US9687467B2, “Diagnosis and treatment of taxane-resistant cancers” (Children's Medical Center Corporation, priority 2011, dated 2017)
Where two headings read alike, the source gives them in different places.

Experiments:
[1] = test system: A549 xenografts; test: A549 xenograft mouse model, paclitaxel treatment; type: in vivo, nude mice
Procedure: (FIG. 5A) A suspension of A549 cells was injected subcutaneously into the flank of a nude mouse. When the average tumor volume was at least 120 mm^3, vehicle or paclitaxel (15 mg/kg) was administered intraperitoneally every other day. Treatment was continued until tumors reached approximately four times their initial volume. Paclitaxel-refractory, as well as vehicle-treated tumors, were digested with collagenase and cultured in vitro (adapted from Norman E et al. Nature Reviews Drug Discovery 2006; 5: 741-754). (FIG. 5B) Tumor growth was determined as the tumor volume on the day of treatment relative to the tumor volume at the start of treatment and presented as a ratio. Each line represents the growth of an individual tumor (T) in an individual mouse (indicated by a number). Groups of mice are separated into control, paclitaxel-responsive and paclitaxel non-responsive (continuous tumor growth in the presence of paclitaxel) groups. […] (FIG. 5C) Vehicle-treated tumors (hatched bars) or paclitaxel-refractory tumors (black bars) were harvested from mice and used to generate two cell lines per tumor. The indicated cell lines were cultured in vitro and cell viability was assessed 72 h after paclitaxel addition using the MTT assay. Bars represent average LC50±s.e.m. from triplicate experiments.
Nude mice were inoculated with A549 cells. At an average tumor volume of ˜120 mm^3, vehicle control and 10 mg/kg (FIG. 10A) or 12.5 mg/kg (FIG. 10B) paclitaxel was administered i.p. every day. Each curve represents the tumor volume on the day of treatment relative to day 0 per mouse.
To further establish the role of miR-135a in paclitaxel response, the A549 xenograft mouse model was adapted from the protocol previously described by Patel et al., 2010. Briefly, nude mice bearing subcutaneous A549 xenografts were injected intraperitoneally with either vehicle or 15 mg/kg paclitaxel until tumors that responded initially began to regrow (FIG. 5A). […] After 120 days of paclitaxel treatment, control and paclitaxel-refractory tumors were harvested. Within two passages in vitro, RNA was harvested for miRNA evaluation and determination of paclitaxel response.
Approximately 4×10^6 human A549 NSCLC cells were resuspended in 50% Matrigel (BD Biosciences, Bedford, Mass.) and injected subcutaneously into the hind flanks of 8-wk old male athymic (nu/nu) nude mice (Taconic Farms, Inc., Hudson, N.Y.). […] Tumor size was determined by digital caliper measurements (length and width in mm), and tumor volume (mm^3) was estimated using the formula (length×width^2)/2. Effects on tumor growth rate were assessed per mouse by determining the tumor volume on the day of treatment relative to the tumor volume on Day 0. […]

[2] = test system: T20.2 cells; test: cells; type: cell-based; details: Homo sapiens
Procedure: (FIG. 7A). The parental A549 cells, a cell line that became refractory during in vivo treatment with paclitaxel (T20.2 round 1) and the same cell line established after yet another round of in vivo paclitaxel treatment (T20.2 reinjection) were treated with paclitaxel and cell viability was assessed using the MTT assay. Represented are average LC50±s.e.m. determined by MTT assay for parental A549 cells (white boxes), **P<0.001, *P<0.05 as determined by Wilcoxon's rank sum test for T20.2 round 1 cells (hatched boxes) and for T20.2 re-injection cells (filled boxes). (FIG. 7B) The expression of miR-135a was examined in these cells by qRT-PCR. *P<0.05 as determined by Wilcoxon's rank sum test. […] The correlation between paclitaxel response and miR-135a expression was calculated using the Spearman's rank test. […] Subsequently, cells were treated with the indicated concentrations of paclitaxel and cell viability was assessed using the MTT assay. […]
Approximately 4×10^6 human A549 NSCLC cells were resuspended in 50% Matrigel (BD Biosciences, Bedford, Mass.) and injected subcutaneously into the hind flanks of 8-wk old male athymic (nu/nu) nude mice (Taconic Farms, Inc., Hudson, N.Y.). […] Tumor size was determined by digital caliper measurements (length and width in mm), and tumor volume (mm^3) was estimated using the formula (length×width^2)/2. […]

[3] = test system: A549 cells; test: cells; type: cell-based; details: Homo sapiens, A549, read-out: median LC50
Procedure: The paclitaxel-resistant cell lines MES-SA^DX5 and A549^TR were transfected with a scrambled non-targeting miRNA (control) and an miR-135a mimic (mimic), respectively. Cells were subsequently treated with 100 nM paclitaxel and cell viability was assessed using the MTT assay (FIGS. 2A, 2B). The percentage of apoptotic cells was assessed by Annexin V-staining and FACS analysis (FIGS. 2C, 2D). Values are presented as percent cell survival in paclitaxel-treated cells relative to untreated cells. *P<0.05, **P<0.001 as determined by Wilcoxon's rank sum test.
FIGS. 4A-4E are a series of micrographs and line graphs showing that miR-135a-mediated APC suppression contributes to paclitaxel resistance. […] Transfected A549 (FIG. 4B) and MES-SA (FIG. 4C) cells were treated with paclitaxel and viability was assessed using the MTT assay. […] (FIG. 4E) Both A549-shCON and -shAPC cells were treated with paclitaxel and cell viability was measured using the MTT assay. […]
(FIG. 7A). The parental A549 cells, a cell line that became refractory during in vivo treatment with paclitaxel (T20.2 round 1) and the same cell line established after yet another round of in vivo paclitaxel treatment (T20.2 reinjection) were treated with paclitaxel and cell viability was assessed using the MTT assay. […] (FIG. 7B) The expression of miR-135a was examined in these cells by qRT-PCR. *P<0.05 as determined by Wilcoxon's rank sum test. […]

CC(=O)O[C@H]1C(=O)[C@@]2(C)[C@H]([C@H](OC(=O)c3ccccc3)[C@]3(O)C[C@H](OC(=O)[C@H](O)[C@@H](NC(=O)c4ccccc4)c4ccccc4)C(C)=C1C3(C)C)[C@]1(OC(C)=O)CO[C@@H]1C[C@@H]2O [paclitaxel]
generation of paclitaxel-refractory tumors ([1]; 10 mg/kg paclitaxel i.p.): did not generate any paclitaxel-refractory tumors | generation of paclitaxel-refractory tumors ([1]; 12.5 mg/kg paclitaxel i.p.): did not generate any paclitaxel-refractory tumors | mice with prolonged response ([1]; 15 mg/kg paclitaxel intraperitoneally): 7 out of 10 | mice that became paclitaxel-refractory ([1]; 15 mg/kg paclitaxel intraperitoneally, continued treatment): 3 out of 10 | CC50 ([2]; read-out: median LC50, after one in vivo passage (T20.2 round 1), MTT, P=0.030): 13.3 nM | CC50 ([2]; read-out: median LC50, after re-injection (T20.2 reinjection), MTT, P=0.008): 127 nM | CC50 [3]: 1.14 nM
